Laboratory results reported in US20240067600A1, “SMALL MOLECULE INHIBITORS OF THE MITOCHONDRIAL PERMEABILITY TRANSITION PORE (mtPTP)” (UNIVERSITY OF KANSAS, priority 2014, published 2024).

Key:
Assay type in all cases: in vivo
[1] = system: exon 9 col6a1 morphant zebrafish; assay: Muscle birefringence assay in exon 9 col6a1 morphant zebrafish embryos
Protocol: Zebrafish and embryo maintenance. Adult zebrafish were maintained in the facility of the University of Padova containing aerated, 28.5° C.-conditioned saline water according to standard protocols. Fish were kept under a 14 h light-10 h dark cycle. For mating, males and females were separated in the late afternoon, and were freed to start courtship the next morning, which ended with egg deposition and fecundation. Eggs were collected, washed with fish water (0.5 mM NaH2PO4, 0.5 mM NaHPO4, 0.2 mg/L methylene blue, 3 mg/L instant ocean) and embryos were maintained at 28.5° C. All protocols and manipulations with zebrafish were performed as described in C. […]
Birefringence assay. Muscle birefringence was measured at 48 hpf on tricaine-anesthetized embryos by taking advantage of muscle fiber anisotropy. It was measured using two polarizing filters on a Leica M165FC stereomicroscope. Briefly, anesthetized embryos were placed on a glass slide, and muscle light refraction was analyzed by using two polarizing filters. […] Integrated area of birefringence was calculated by using ImageJ software, as disclosed in J. Berger, T. Sztal, P. D. Currie, Biochem. Biophys. […]
Statistical analysis. Differences between control and compound treated samples were determined by one-way ANOVA test with Bonferroni correction using GraphPad Prism (version 5.1 for Windows). […]

[2] = system: exon 9 col6a1 morphant zebrafish; assay: Touch-evoked escape response of exon 9 col6a1 morphant zebrafish embryos; details: 5 and 10 μM in fish water from 21 hpf; read at 48 hpf
Protocol: (§1) Zebrafish and embryo maintenance. Adult zebrafish were maintained in the facility of the University of Padova containing aerated, 28.5° C.-conditioned saline water according to standard protocols. Fish were kept under a 14 h light-10 h dark cycle. For mating, males and females were separated in the late afternoon, and were freed to start courtship the next morning, which ended with egg deposition and fecundation. Eggs were collected, washed with fish water (0.5 mM NaH2PO4, 0.5 mM NaHPO4, 0.2 mg/L methylene blue, 3 mg/L instant ocean) and embryos were maintained at 28.5° C. All protocols and manipulations with zebrafish were performed as described in C. B. Kimmel, W. W. Ballard, S. R. Kimmel, B. Ullmann, T. F. Schilling, Dev. Dyn. […]
(§2) Motor activity. Spontaneous coiling rates were recorded by observing the number of coiling events in 15 s for single embryos at 24 hpf using light microscopy. Touch-evoked escape response was measured at 48 hpf by observing the ability of larvae to escape after touching the body with a little tip. […]
(§3) Statistical analysis. Differences between control and compound treated samples were determined by one-way ANOVA test with Bonferroni correction using GraphPad Prism (version 5.1 for Windows). […] For FIG. 3, the total number of embryos used is n=35 for each condition; *p<0.05, ***p<0.001, as determined by χ^2 test and oneway ANOVA with Bonferroni correction.

[3] = system: exon 9 col6a1 morphant zebrafish; assay: Spontaneous coiling of exon 9 col6a1 morphant zebrafish embryos; details: 5 and 10 μM in fish water from 21 hpf; read at 24 hpf
Protocol: as §1, §2, §3

Cc1c(Cl)cccc1NC(=O)c1cc(-c2ccc(F)c(O)c2)on1 [compound 60, N-(3-Chloro-2-methylphenyl)-5-(4-fluoro-3-hydroxyphenyl)isoxazole-3-carboxamide]
muscle defects by muscle birefringence (FIG. 3) ([1]; 5 and 10 μM in fish water from 21 hpf, read at 48 hpf): largely ameliorated | total birefringence scores ([1]; 48 hpf, ANOVA, p<0.05): significant recovery of muscle defects | motor function: touch-evoked response (FIG. 2) [2]: dramatic improvement in motor function | motor function: spontaneous coiling events (FIG. 1) [3]: dramatic improvement in motor function
